# Reference: ChEMBL document CHEMBL4004782, “A review on tacrine-based scaffolds as multi-target drugs (MTDLs) for Alzheimer's disease” (Eur J Med Chem, 2017)
# Tests used:
# [1] = Selectivity index, ratio of IC50 for human serum BChE to IC50 for rat cortex AchE
# Acetylcholinesterase [2] = target: T1, Acetylcholinesterase (Rattus norvegicus, UniProt P37136); assay: Inhibition of rat cortex AchE using acetylthiocholine iodide as substrate by Ellman's method
# T1 sequence (P37136 whole entry): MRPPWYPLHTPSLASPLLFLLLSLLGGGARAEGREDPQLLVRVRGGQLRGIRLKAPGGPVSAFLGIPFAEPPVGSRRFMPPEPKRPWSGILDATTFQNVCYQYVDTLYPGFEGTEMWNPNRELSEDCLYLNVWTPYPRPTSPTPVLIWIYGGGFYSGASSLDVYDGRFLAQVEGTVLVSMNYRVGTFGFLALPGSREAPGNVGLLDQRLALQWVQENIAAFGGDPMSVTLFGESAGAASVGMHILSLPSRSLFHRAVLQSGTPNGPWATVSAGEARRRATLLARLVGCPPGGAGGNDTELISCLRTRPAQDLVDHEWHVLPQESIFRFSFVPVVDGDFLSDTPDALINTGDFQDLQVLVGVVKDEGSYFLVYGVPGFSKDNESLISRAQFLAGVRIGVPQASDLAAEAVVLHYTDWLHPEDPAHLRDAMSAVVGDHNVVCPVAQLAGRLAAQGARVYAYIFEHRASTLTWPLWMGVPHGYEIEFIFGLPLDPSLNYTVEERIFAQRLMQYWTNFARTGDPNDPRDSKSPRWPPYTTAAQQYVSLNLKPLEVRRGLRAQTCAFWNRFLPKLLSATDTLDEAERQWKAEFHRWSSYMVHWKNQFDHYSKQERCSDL
# [3] = target: T2, Acetylcholinesterase (Bos taurus) (UniProt P23795); assay: Displacement of propidium iodide from bovine erythrocyte AchE at 0.3 uM incubated for 6 hrs followed by addition of propidium iodide and measured after 15 mins by thioflavin T-fluorescence assay
# T2 sequence (whole entry): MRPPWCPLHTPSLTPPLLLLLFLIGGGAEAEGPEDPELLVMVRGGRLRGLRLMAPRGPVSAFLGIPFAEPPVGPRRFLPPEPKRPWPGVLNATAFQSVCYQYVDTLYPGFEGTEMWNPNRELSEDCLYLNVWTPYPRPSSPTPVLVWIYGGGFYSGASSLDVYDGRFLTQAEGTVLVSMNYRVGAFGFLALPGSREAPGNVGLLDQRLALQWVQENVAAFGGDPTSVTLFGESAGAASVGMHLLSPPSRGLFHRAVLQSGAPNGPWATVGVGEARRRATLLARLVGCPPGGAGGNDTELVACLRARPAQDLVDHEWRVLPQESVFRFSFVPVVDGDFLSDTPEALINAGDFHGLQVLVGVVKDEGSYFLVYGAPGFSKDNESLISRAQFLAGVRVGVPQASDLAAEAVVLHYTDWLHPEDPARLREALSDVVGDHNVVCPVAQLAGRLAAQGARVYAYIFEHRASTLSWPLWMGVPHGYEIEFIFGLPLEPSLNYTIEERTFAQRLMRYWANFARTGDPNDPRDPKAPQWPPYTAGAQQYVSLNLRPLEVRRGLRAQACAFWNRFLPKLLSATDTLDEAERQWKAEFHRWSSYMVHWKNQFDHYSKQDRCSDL
# Acetylcholinesterase [4] = target: T3, Acetylcholinesterase (Bos taurus, UniProt P23795); assay: Inhibition of bovine erythrocyte AchE using acetylthiocholine as substrate by Ellman's method
# T3 sequence (P23795 whole entry): T2 sequence (whole entry)
# [5] = target: T2, Acetylcholinesterase (Bos taurus); assay: Displacement of propidium iodide from bovine erythrocyte AchE at 3 uM incubated for 6 hrs followed by addition of propidium iodide and measured after 15 mins by thioflavin T-fluorescence assay
# [6] = target: T2, Acetylcholinesterase (Bos taurus); assay: Displacement of propidium iodide from bovine erythrocyte AchE at 1 uM incubated for 6 hrs followed by addition of propidium iodide and measured after 15 mins by thioflavin T-fluorescence assay
# Cholinesterase = Cholinesterase (Homo sapiens, UniProt P06276); assay: Inhibition of BuChE (unknown origin)
# Acetylcholinesterase [7] = target: Acetylcholinesterase (Homo sapiens, UniProt P22303); assay: Inhibition of human AchE-induced amyloid beta (1 to 40) aggregation after 48 hrs by thioflavin T fluorescence spectroscopic method
# Chain of Acetylcholinesterase (Homo sapiens, UniProt P22303) (P22303 whole entry): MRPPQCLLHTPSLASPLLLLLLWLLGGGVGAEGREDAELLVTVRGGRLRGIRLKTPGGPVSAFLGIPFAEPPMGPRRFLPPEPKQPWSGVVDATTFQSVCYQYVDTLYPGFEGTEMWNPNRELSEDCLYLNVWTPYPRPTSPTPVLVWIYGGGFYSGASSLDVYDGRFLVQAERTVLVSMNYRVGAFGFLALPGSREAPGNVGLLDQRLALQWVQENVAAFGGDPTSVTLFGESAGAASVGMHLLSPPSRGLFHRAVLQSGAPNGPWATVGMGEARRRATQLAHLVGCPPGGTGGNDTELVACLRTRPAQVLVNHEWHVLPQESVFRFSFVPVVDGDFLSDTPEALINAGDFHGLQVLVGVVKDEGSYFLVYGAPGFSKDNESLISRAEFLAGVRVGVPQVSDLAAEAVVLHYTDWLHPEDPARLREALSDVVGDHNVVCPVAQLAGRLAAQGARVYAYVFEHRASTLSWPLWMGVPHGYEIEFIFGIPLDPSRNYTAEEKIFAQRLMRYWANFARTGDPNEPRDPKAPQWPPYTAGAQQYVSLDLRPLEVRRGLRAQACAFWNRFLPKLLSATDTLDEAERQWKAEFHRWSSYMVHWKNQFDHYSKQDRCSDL
# Chain of Cholinesterase (P06276 whole entry): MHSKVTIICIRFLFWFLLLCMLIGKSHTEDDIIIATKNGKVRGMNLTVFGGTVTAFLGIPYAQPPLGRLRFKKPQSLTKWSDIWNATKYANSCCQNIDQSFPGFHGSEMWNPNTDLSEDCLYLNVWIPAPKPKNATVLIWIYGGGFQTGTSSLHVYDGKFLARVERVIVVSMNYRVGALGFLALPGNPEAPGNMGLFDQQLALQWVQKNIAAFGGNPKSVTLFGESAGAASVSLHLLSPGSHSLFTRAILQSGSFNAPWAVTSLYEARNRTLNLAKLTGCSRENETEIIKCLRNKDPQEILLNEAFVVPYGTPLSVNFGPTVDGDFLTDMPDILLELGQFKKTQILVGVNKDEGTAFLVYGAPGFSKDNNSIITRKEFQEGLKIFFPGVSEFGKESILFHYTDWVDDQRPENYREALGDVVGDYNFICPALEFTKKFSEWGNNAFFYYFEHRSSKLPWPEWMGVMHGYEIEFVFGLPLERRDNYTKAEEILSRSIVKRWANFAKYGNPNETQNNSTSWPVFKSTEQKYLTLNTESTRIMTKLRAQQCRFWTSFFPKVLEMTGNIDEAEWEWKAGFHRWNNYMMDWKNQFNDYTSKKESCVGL
structure (smiles),measurement,setting,value
Clc1ccc2c(NCCCCCCCCNc3c4c(nc5ccccc35)CCCC4)c3c(nc2c1)CCCC3,Ratio IC50,[1],371
same,IC50,Acetylcholinesterase [2],0.07 nM
Clc1ccc2c(NCCCCCCCCCNc3c4c(nc5c3CCCC5)CCCC4)c3c(nc2c1)CCCC3,Ratio IC50,[1],647
same,IC50,Acetylcholinesterase [2],0.3 nM
O=C(CCCCCNc1c2c(nc3ccccc13)CCCC2)NCCc1c[nH]c2ccccc12,inhibition,[3],42%
same,IC50,Acetylcholinesterase [4],1 nM
same,inhibition,[5],35%
same,inhibition,[6],34%
Cc1c(C)c2c(c(C)c1O)CCC(C)(C(=O)NCCCCCCCCNc1c3c(nc4cc(Cl)ccc14)CCCC3)O2 (stereo not given),IC50,Cholinesterase,54 nM
c1ccc2c(NCCCCCCCCNc3c4c(nc5c3CCCC5)CCCC4)c3c(nc2c1)CCCC3,Ratio IC50,[1],221
same,IC50,Acetylcholinesterase [2],0.2 nM
O=C(CCCC1CCSS1)NCCCNc1c2c(nc3cc(Cl)ccc13)CCCC2 (stereo not given),IC50,Acetylcholinesterase [7],253 nM
O=C(CCCCCCNc1c2c(nc3cc(Cl)ccc13)CCCC2)NCCc1c[nH]c2ccccc12,inhibition,[3],42%
same,inhibition,[5],35%
same,inhibition,[6],34%
